According to ChEMBL document CHEMBL3272025, “Conformation-activity studies of oxytocin. Effects of structural modifications at corner positions of the beta-turns on the uterotonic activity” (J Med Chem, 1977):
Bridge positions count the residues as written; N and C are the ends. Peptide text beside a SMILES is read from it.

Columns and labels:
Rattus norvegicus [1] = experiment: Antidiuretic activity in anesthetized rat; format: functional, Urine
[2] = Retardation factor of the compound using BuOH-C6H6-HOAc-1.5% aqueous pyridine at ratio of 5:5:4:6 as solvent system by partition chromatography; format: physicochemical; conditions: buffer
[3] = Retardation factor of the compound using BuOH-HOAc-H2O at ratio of 4:1:1 as solvent system by thin layer chromatography; format: physicochemical
[4] = molecular target: T1, Oxytocin receptor (Rattus norvegicus) (UniProt P70536); experiment: Agonist activity at oxytocin receptor in virgin rat uterine horns assessed as uterotonic activity at relative to synthetic oxytocin
T1 sequence (whole entry): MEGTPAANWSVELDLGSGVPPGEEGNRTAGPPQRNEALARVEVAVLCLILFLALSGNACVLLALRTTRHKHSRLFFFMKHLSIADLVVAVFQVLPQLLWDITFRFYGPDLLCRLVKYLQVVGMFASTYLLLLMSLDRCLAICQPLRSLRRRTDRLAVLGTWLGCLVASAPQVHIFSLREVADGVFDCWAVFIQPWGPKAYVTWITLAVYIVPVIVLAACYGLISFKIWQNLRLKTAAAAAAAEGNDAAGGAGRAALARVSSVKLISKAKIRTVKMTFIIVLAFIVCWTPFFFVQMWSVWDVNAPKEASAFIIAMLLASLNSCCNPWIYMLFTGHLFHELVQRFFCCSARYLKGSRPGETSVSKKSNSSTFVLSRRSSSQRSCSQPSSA

Gallus gallus [5] = experiment: Inhibition of vasodepressor activity in conscious chicken; format: functional, organism-based; conditions: read-out: pA2 (converted)
[6] = Retardation factor of the compound using BuOH-C6H6-HOAc-1.5% aqueous pyridine at ratio of 10:15:12:18 as solvent system by partition chromatography; format: physicochemical; conditions: buffer
[7] = Retardation factor of the compound using BuOH-pyridine-HOAc-H2O at ratio of 15:10:3:6 as solvent system by thin layer chromatography; format: physicochemical
Gallus gallus [8] = experiment: Vasodepressor activity in conscious chicken; format: functional
Rattus norvegicus [9] = experiment: Pressor activity in anesthetized rat; format: functional
[10] = molecular target: T1, Oxytocin receptor (Rattus norvegicus); experiment: Agonist activity at oxytocin receptor in virgin rat uterine horns assessed as uterotonic activity at
[11] = Retardation factor of the compound using BuOH-pyridine-H2O at ratio of 20:10:11 as solvent system by thin layer chromatography; format: physicochemical

Row | Rf [2] | Rf [3] | Activity [4] [%] | Rf [6] | Rf [7] | Activity [10] [U/mg] | Rf [11] | SMILES | Activity (Rattus norvegicus [1]) [U/mg] | Kb (Gallus gallus [5]) [nM] | Activity (Gallus gallus [8]) [U/mg] | Activity (Rattus norvegicus [9]) [U/mg]
1 | 0.49 | 0.38 | 54 | 0.19 |  |  |  | CSCC[C@H](NC(=O)[C@@H]1CCCN1C(=O)[C@@H]1CSSC[C@H](N)C(=O)N[C@@H](Cc2ccc(O)cc2)C(=O)N[C@@H](Cc2ccccc2)C(=O)N[C@@H](Cc2ccccc2)C(=O)N[C@@H](CC(N)=O)C(=O)N1)C(=O)NCC(N)=O (H-CYFFNCPMG-NH2; disulfide 1-6) | 0.43 | 513 |  | 
2 |  | 0.38 | 66 | 0.17 | 0.64 | 0.62 |  | CSCC[C@H](NC(=O)[C@@H]1CCCN1C(=O)[C@@H]1CSSC[C@H](N)C(=O)N[C@@H](Cc2ccc(O)cc2)C(=O)N[C@@H](Cc2ccccc2)C(=O)N[C@@H](CC(C)C)C(=O)N[C@@H](CC(N)=O)C(=O)N1)C(=O)NCC(N)=O (H-CYFLNCPMG-NH2; disulfide 1-6) | 0.33 |  | 1.05 | 0.92
3 |  |  | 90 |  |  | 39 |  | CC(C)C[C@H](NC(=O)[C@@H]1CCCN1C(=O)[C@@H]1CSSC[C@H](N)C(=O)N[C@@H](Cc2ccc(O)cc2)C(=O)N[C@@H](Cc2ccccc2)C(=O)N[C@@H](CCC(N)=O)C(=O)N[C@@H](CC(N)=O)C(=O)N1)C(=O)NCC(N)=O (H-CYFQNCPLG-NH2; disulfide 1-6) |  |  |  | 
4 |  | 0.38 | 75 | 0.26 |  | 0.75 | 0.61 | CC[C@H](C)[C@@H]1NC(=O)[C@H](Cc2ccc(O)cc2)NC(=O)[C@@H](N)CSSC[C@@H](C(=O)N2CCC[C@H]2C(=O)N[C@@H](CC(C)C)C(=O)NCC(N)=O)NC(=O)[C@H](CC(N)=O)NC(=O)[C@H](Cc2ccccc2)NC1=O (H-CYIFNCPLG-NH2; disulfide 1-6) |  |  |  | 
5 |  |  | 81 |  |  | 13 |  | CC[C@H](C)[C@@H]1NC(=O)[C@H](Cc2ccc(O)cc2)NC(=O)[C@@H](N)CSSC[C@@H](C(=O)N2CCC[C@H]2C(=O)N[C@@H](CC(C)C)C(=O)NCC(N)=O)NC(=O)[C@H](CC(N)=O)NC(=O)[C@H](CC(C)C)NC1=O (H-CYILNCPLG-NH2; disulfide 1-6) |  |  |  | 
